Structures are written as SMILES. Where “and” joins values, the source holds several entries; their conditions need not be identical. Equal entries are not always repeated.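 Method: 48-hour compound exposure of cells in 96-well plates, five concentrations, linear interpolation of endpoints. Abbreviation: GI50, concentration required for 50% inhibition of growth. TGI denotes the concentration required for complete inhibition of growth.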

Some test systems named below: A549 NSCLC; DU-145 prostate; MCF7 breast; MDA-MB-231 breast; MOLT-4 leukemia; NCI-H23 lung; RPMI-8226 leukemia; SK-OV-3 ovarian; SN12C renal.
Common to all, as to assay: NCI-60 cell line screen, 48 h

With `CC1(C)[C@@H](OC(N)=O)C=C[C@]2(CO)[C@H]3CC[C@]4(C)[C@@H](c5ccc(=O)oc5)[C@@H](Cl)C[C@]4(O)C3=CC[C@@H]12`, the GI50 was under 0.0001 µM with A549 NSCLC; under 0.0001 µM in the test with DU-145 prostate; under 0.0001 µM with MCF7 breast; 0.017 µM and 0.0025 µM in the test on MDA-MB-231 breast; under 0.0001 µM in the test on MOLT-4 leukemia; under 0.0001 µM in the test with NCI-H23 lung. Moreover, the GI50 was 0.00917 µM with RPMI-8226 leukemia, 0.00474 µM in the test with SK-OV-3 ovarian and under 0.0001 µM in the test with SN12C renal. Further, the TGI was 0.00192 µM in the test with A549 NSCLC; 0.00117 µM in the test on DU-145 prostate; 0.0299 µM with MCF7 breast; 0.0588 µM and 0.159 µM in the test on MDA-MB-231 breast; 0.0113 µM in the test with NCI-H23 lung; 0.0956 µM with RPMI-8226 leukemia. In addition, the TGI with SK-OV-3 ovarian turned out to be 0.0306 µM; with SN12C renal it was 0.0157 µM.

Regarding `C[C@]12CC[C@H]3[C@@H](CCC4=C(Br)C(=O)C=C[C@@]43O)[C@@H]1CCC2=O`, the TGI is over 100 µM with A549 NSCLC; 68.7 µM in the test on DU-145 prostate; over 100 µM with MCF7 breast; over 100 µM with MDA-MB-231 breast; over 100 µM in the test on MOLT-4 leukemia; over 100 µM in the test with NCI-H23 lung. Besides, the TGI with RPMI-8226 leukemia, with SK-OV-3 ovarian and in the test on SN12C renal was over 100 µM throughout.

On to `Cc1ccc(NC2=N/C(=C/c3ccco3)C(Cl)=N2)cc1`, for which the TGI in the test with A549 NSCLC, in the test with DU-145 prostate, in the test on MCF7 breast, in the test on MDA-MB-231 breast, with MOLT-4 leukemia and in the test with NCI-H23 lung was over 100 µM throughout. For the same compound, the TGI in the test on RPMI-8226 leukemia, with SK-OV-3 ovarian and in the test with SN12C renal was over 100 µM throughout.

With `CNC(=O)N(CCC#N)CCCN(C(=O)N(C)C)c1ccccc1`, the TGI in the test on A549 NSCLC, with DU-145 prostate, in the test on MCF7 breast, in the test with MDA-MB-231 breast, in the test on MOLT-4 leukemia and in the test with NCI-H23 lung was over 100 µM each time. Moreover, the TGI in the test on RPMI-8226 leukemia, with SK-OV-3 ovarian and in the test with SN12C renal was over 100 µM throughout.

Take `Cn1ccc2c(c1=O)C(=O)OC2(C)C`: the TGI with A549 NSCLC, in the test with DU-145 prostate, in the test on MCF7 breast, with MDA-MB-231 breast, in the test with MOLT-4 leukemia and in the test with NCI-H23 lung was over 100 µM in each case. Further, the TGI in the test with RPMI-8226 leukemia, in the test on SK-OV-3 ovarian and with SN12C renal was over 100 µM throughout.

Take `O=NN1CCCS1(=O)=O`: the TGI with A549 NSCLC, in the test with DU-145 prostate, in the test with MCF7 breast, in the test with MDA-MB-231 breast, in the test on MOLT-4 leukemia and with NCI-H23 lung was over 100 µM in each case. Further, the TGI with RPMI-8226 leukemia, in the test on SK-OV-3 ovarian and in the test on SN12C renal was over 100 µM in each case.

On to `COc1cc2oc(=O)cc(C)c2cc1OC`, for which the TGI with A549 NSCLC, in the test on DU-145 prostate, with MCF7 breast, in the test on MDA-MB-231 breast, with MOLT-4 leukemia and in the test with NCI-H23 lung was over 100 µM each time. Besides, the TGI in the test with RPMI-8226 leukemia, in the test on SK-OV-3 ovarian and in the test on SN12C renal was over 100 µM throughout.

Consider `COc1cc2c(c(OC)c1)C(=O)O[C@H](C)CCCC/C=C/C2`, for which the TGI in the test on A549 NSCLC is over 100 µM; in the test on DU-145 prostate, 27.1 µM; in the test on MCF7 breast, over 32.6 µM; in the test on MDA-MB-231 breast, over 31.9 µM; in the test on MOLT-4 leukemia, over 31.9 µM; in the test on NCI-H23 lung it was over 100 µM. In addition, the TGI was 25.6 µM in the test on RPMI-8226 leukemia, over 100 µM in the test on SK-OV-3 ovarian and 13.6 µM in the test with SN12C renal.

With `O=[N+]([O-])c1cc(F)ccc1Sc1ccccc1`, the TGI in the test on A549 NSCLC, in the test with DU-145 prostate, with MCF7 breast, in the test on MDA-MB-231 breast, in the test on MOLT-4 leukemia and in the test on NCI-H23 lung was over 10 µM in each case. The TGI with RPMI-8226 leukemia, in the test on SK-OV-3 ovarian and in the test on SN12C renal was over 10 µM each time.

As to `COc1cc2oc(=O)cc(C)c2c(OC)c1OC(C)=O`, the TGI in the test on A549 NSCLC, in the test on DU-145 prostate, in the test with MCF7 breast, in the test on MDA-MB-231 breast, with MOLT-4 leukemia and in the test with NCI-H23 lung was over 100 µM throughout. The TGI in the test on RPMI-8226 leukemia, in the test on SK-OV-3 ovarian and in the test on SN12C renal was over 100 µM each time.

Consider `COc1cc(CNC(=S)CCCCCCCCCCC(C)C)ccc1O`, for which the TGI with A549 NSCLC, in the test with DU-145 prostate, in the test with MCF7 breast, with MDA-MB-231 breast, in the test on MOLT-4 leukemia and in the test with NCI-H23 lung was over 100 µM each time. In addition, the TGI in the test on RPMI-8226 leukemia, with SK-OV-3 ovarian and with SN12C renal was over 100 µM throughout.

(Values after PubChem BioAssay (NCI).)
